Values of other authors as cited in paper PMC11665553, “12-Lipoxygenase inhibition delays onset of autoimmune diabetes in human gene replacement mice” (JCI Insight, 2024).

Experiments:
[1] = parameters: method as in PMID 28842399; conditions: cited from earlier work
NOD mice = tested on: NOD mice; parameters: method as in PMID 28842399; conditions: cited from earlier work

Structure (SMILES) | Off-target cytotoxicity [1] | Effect in NOD mice (NOD mice)
CC(=O)NC(c1cccs1)c1cc(Br)c2cccnc2c1O (centres unmarked) [ML127] | evidence of off-target cytotoxicity | –
CNc1oc(-c2cccc3ccccc23)nc1C#N [ML351] | – | reductions in insulitis and improvements in glucose homeostasis
